Source: patent publication US8420657B2 (Novartis AG, priority 2008, dated 2013)

What was measured:
[1] = system: JAK2-dependent nuclear translocation of STAT5-GFP in U-2 OS osteosarcoma cells; assay: STAT5 nuclear translocation assay (Cellomics), rhEpo stimulated U-2 OS STAT5-GFP cells; format: cell-based; details: Homo sapiens, U2OS; STAT5 translocation pathway
Text: The medium-throughput (96-well format) cellular automated fluorescence microscopy Cellomics assay can be routinely used to assess the functional activation of Janus Kinases (JAKs), based on the nuclear translocation of their substrate, Signal Transducer and Activator of Transcription (STAT). Nuclear translocation can be monitored either in HT1080 fibrosarcoma cells stably transfected with STAT1 fused to Green Fluorescence Protein (GFP) or in U-2 OS osteosarcoma cells stably transfected with STAT5 fused to Green Fluorescence Protein (GFP). Stimulation of HT1080 cells with interferon-γ (IFN-γ) results in JAK1/JAK2-dependent nuclear translocation of STAT1-GFP, whereas stimulation of U-2 OS cells with recombinant human erythropoietin (rhEpo) results in JAK2-dependent nuclear translocation of STAT5-GFP, both of which can be quantified using the Cellomics Cyto/NucTrans software package. This assay may be used to provide an assessment of the nuclear-cytoplasmic differential (NCD) of STAT-GFP using Hoechst dye to define the boundaries of the nucleus.
U-2 OS osteosarcoma cells may be obtained from ATCC and can be cultured in standard RPMI medium supplemented with 10% FCS and 2 mM L-glutamine. Cells can be stably transfected with STAT5a-GFP using Lipofectamine following the manufacturers' protocol. 24 hours after transfection the medium can be replaced and selected in 400 μg/ml Geneticin. Subsequently, cells can be stably transfected with EpoR using Lipofectamine following the manufacturers' protocol. 24 hours after transfection the medium can be replaced and cells selected in 100 μg/ml Hygromycin B.
Compounds can be dissolved in DMSO to a final stock concentration of 10 mM and stored as aliquots at 4° C. Compounds may be pre-diluted in 100% DMSO at 10 mM, 3 mM 1 mM, 0.3 mM, 0.1 mM, 0.03 mM, 0.01 mM and 0.003 mM. Subsequently, compounds may be diluted in medium and added in 50 μl to the cells. The final compound concentrations tested may be 10 μM, 3 μM 1 μM, 0.3 μM, 0.1 μM, 0.03 μM, 0.01 μM and 0.003 μM and the final DMSO concentration can be 0.1%.
U-2 OS may be seeded at a cell density of 12,000 cells per well in clear-bottom black 96-well Packard View-Plates™. The following day, medium can be removed and replaced with medium containing either the vehicle (DMSO) or increasing concentrations of test compounds for 30 minutes at 37° C. Cells can then be stimulated for 1 hour by adding 10 μl per well of 50 U/ml rhEpo to obtain 5 U/ml of rhEpo as the final concentration. Following treatments, cells can fixed and processed as described above.
The plates can be read on a Cellomics® ArrayscanII automated fluorescence microscope plate reader equipped with a Mercury-Xenon white light illumination source and a Zeiss Axiovert inverted microscope, using the XF100 dichroic/emission filter cube and matching excitation filters, 10× magnification, and a 0.3 numerical aperture objective. Image acquisition and analysis can be performed using a customized protocol based on the ‘NuclearTranslocation’ Bioapplication. For each well, multiple images (fields) can be acquired until a minimum of 1000 cells are counted using two 2 channels: Channel 1 (Hoechst)=focus+nuclear mask, Channel 2 (GFP)=signal quantification in mask areas as outlined below. Nuclei may be first identified based on the Hoechst staining and a mask generated for each nucleus that then serves as a template to generate a circle (eroded inwards by 1 pixel) and a 3 pixel-wide collar-like ring (off-set outwards by 1 pixel), in which the nuclear and cytoplasmic intensity of GFP, respectively, are quantified in the corresponding channel. High content analysis yields numerous measurements per cell and the GFP intensity differential between the nuclear and the cytoplasmic masks may be chosen as a measure of sub-cellular STAT-GFP relocation. The resulting values may be averaged for all cells in the well to return a single measurement plus standard deviation. […]

GST-JAK2(808-1132) = molecular target: T1, GST-JAK2(808-1132) (Homo sapiens, UniProt O60674); assay: JAK2 kinase assay (Caliper mobility shift, LabChip 3000); format: biochemical
T1 construct: GST-JAK2(808-1132); purchased Invitrogen (Carlsbad, USA) #4288
In short: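 Eight-point compound series (final 10–0.003 μM) tested on purchased GST-JAK2 kinase domain (808-1132). Peptide FITC-JAK3tide plus ATP reacted 60 min, 30 °C, then quenched with EDTA; turnover from charge-based separation of substrate and product.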

T1 sequence (O60674 808-1132): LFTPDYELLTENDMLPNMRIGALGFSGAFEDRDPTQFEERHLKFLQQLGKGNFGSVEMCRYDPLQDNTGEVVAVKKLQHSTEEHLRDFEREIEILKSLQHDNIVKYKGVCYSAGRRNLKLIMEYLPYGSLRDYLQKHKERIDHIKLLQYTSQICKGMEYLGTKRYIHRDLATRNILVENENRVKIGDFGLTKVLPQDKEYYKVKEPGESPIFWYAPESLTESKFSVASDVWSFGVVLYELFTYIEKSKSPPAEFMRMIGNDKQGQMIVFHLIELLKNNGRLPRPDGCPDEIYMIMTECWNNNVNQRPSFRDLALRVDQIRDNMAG

Row | IC50 [1] [nM] | IC50 (GST-JAK2(808-1132)) [nM] | SMILES
1 | 13.3 | ≤ 3 | OC1CCN(c2ccc(Nc3ncc4ccn(-c5cc(F)c(CN6CCOCC6)c(F)c5)c4n3)cn2)C1 (racemic) [Example 347, 1-{5-[7-(3,5-Difluoro-4-morpholin-4-ylmethyl-phenyl)-7H-pyrrolo[2,3-d]pyrimidin-2-ylamino]-pyridin-2-yl}-pyrrolidin-3-ol]
2 | 1.3 | ≤ 3 | Fc1cc(-n2ccc3cnc(Nc4ccc(C5CNCCO5)cc4)nc32)cc(F)c1CN1CCOCC1 (racemic) [Example 354, [7-(3,5-Difluoro-4-morpholin-4-ylmethyl-phenyl)-7H-pyrrolo[2,3-d]pyrimidin-2-yl]-(4-morpholin-2-yl-phenyl)-amine]
3 | 5.9 | 3.2 | C[C@@H]1CN[C@@H](C)CN1c1ccc(Nc2ncc3ccn(-c4ccc(S(=O)(=O)NC(C)(C)C)cc4)c3n2)cn1 (racemic) [Example 356, N-tert-Butyl-4-{2-[6-((2R,5S)-2,5-dimethyl-piperazin-1-yl)-pyridin-3-ylamino]-pyrrolo[2,3-d]pyrimidin-7-yl}-benzenesulfonamide]
4 | 2.8 | ≤ 3 | Fc1cc(-n2ccc3cnc(Nc4ccnc(N5CCNC(C(F)(F)F)C5)c4)nc32)cc(F)c1CN1CCOCC1 (racemic) [Example 364, [7-(3,5-Difluoro-4-morpholin-4-ylmethyl-phenyl)-7H-pyrrolo[2,3-d]pyrimidin-2-yl]-[2-(3-trifluoromethyl-piperazin-1-yl)-pyridin-4-yl]-amine]
5 | 45 | 13 | Cc1ccc(Nc2ncc3ccn(-c4cc(F)c(CN5CCOCC5)c(F)c4)c3n2)cc1CN1C[C@H](C)NC[C@H]1C (racemic) [Example 378, [7-(3,5-Difluoro-4-morpholin-4-ylmethyl-phenyl)-7H-pyrrolo[2,3-d]pyrimidin-2-yl]-[3-((2R,5S)-2,5-dimethyl-piperazin-1-ylmethyl)-4-methyl-phenyl]-amine]
6 | 22.5 | ≤ 3 | Cc1ccc(Nc2ncc3ccn(-c4ccc(C(=O)N5CCS(=O)(=O)CC5)c(F)c4)c3n2)cc1CN1CCNC(C(F)(F)F)C1 (racemic) [Example 403]
7 | 141 | 5.6 | Cc1ccc(Nc2ncc3ccn(-c4cc(F)c(CN5CCOCC5)c(F)c4)c3n2)cc1CN1CCNC(C(F)(F)F)C1 (racemic) [Example 404, [7-(3,5-Difluoro-4-morpholin-4-ylmethyl-phenyl)-7H-pyrrolo[2,3-d]pyrimidin-2-yl]-[4-methyl-3-(3-trifluoromethyl-piperazin-1-ylmethyl)-phenyl]-amine]
8 | 9.2 | ≤ 3 | Fc1cc(-n2ccc3cnc(Nc4ccnc(CN5CCNC(C(F)(F)F)C5)c4)nc32)cc(F)c1CN1CCOCC1 (racemic) [Example 408, [7-(3,5-Difluoro-4-morpholin-4-ylmethyl-phenyl)-7H-pyrrolo[2,3-d]pyrimidin-2-yl]-[2-(3-trifluoromethyl-piperazin-1-ylmethyl)-pyridin-4-yl]-amine]
9 | 2.6 | ≤ 3 | Cc1ccc(Nc2ncc3ccn(-c4cc(F)c(CN5CCOCC5)c(F)c4)c3n2)cc1CN1CCC(O)C1 (racemic) [Example 411, 1-{5-[7-(3,5-Difluoro-4-morpholin-4-ylmethyl-phenyl)-7H-pyrrolo[2,3-d]pyrimidin-2-ylamino]-2-methyl-benzyl}-pyrrolidin-3-ol]
10 | 3.6 | ≤ 3 | Cc1ccc(Nc2ncc3ccn(-c4cc(F)c(CN5CCS(=O)(=O)CC5)c(F)c4)c3n2)cc1CN1CCC(O)C1 (racemic) [Example 425, 1-(5-{7-[4-(1,1-Dioxido-thiomorpholin-4-ylmethyl)-3,5-difluoro-phenyl]-7H-pyrrolo[2,3-d]pyrimidin-2-ylamino}-2-methyl-benzyl)-pyrrolidin-3-ol]
11 | 18.3 | ≤ 3 | COC1CCN(Cc2cc(Nc3ncc4ccn(-c5cc(F)c(CN6CCOCC6)c(F)c5)c4n3)ccn2)C1 (racemic) [Example 426, [7-(3,5-Difluoro-4-morpholin-4-ylmethyl-phenyl)-7H-pyrrolo[2,3-d]pyrimidin-2-yl]-[2-(3-methoxy-pyrrolidin-1-ylmethyl)-pyridin-4-yl]-amine]
12 | 33.2 | ≤ 3 | CN(C)C1CCN(Cc2cc(Nc3ncc4ccn(-c5cc(F)c(CN6CCOCC6)c(F)c5)c4n3)ccn2)C1 (racemic) [Example 427, [7-(3,5-Difluoro-4-morpholin-4-ylmethyl-phenyl)-7H-pyrrolo[2,3-d]pyrimidin-2-yl]-[2-(3-dimethylamino-pyrrolidin-1-ylmethyl)-pyridin-4-yl]-amine]
13 | 31.5 | ≤ 3 | Cc1ccc(Nc2ncc3ccn(-c4cc(F)c(CN5CCOCC5)c(F)c4)c3n2)cc1CN1CCC(N(C)C)C1 (racemic) [Example 434, [7-(3,5-Difluoro-4-morpholin-4-ylmethyl-phenyl)-7H-pyrrolo[2,3-d]pyrimidin-2-yl]-[3-(3-dimethylamino-pyrrolidin-1-ylmethyl)-4-methyl-phenyl]-amine]
14 | 3.4 | ≤ 3 | Cc1ccc(Nc2ncc3ccn(-c4cc(F)c(CN5CCS(=O)(=O)CC5)c(F)c4)c3n2)cc1CN1CCC(N(C)C)C1 (racemic) [Example 435, [3-(3-Dimethylamino-pyrrolidin-1-ylmethyl)-4-methyl-phenyl]-{7-[4-(1,1-dioxido-thiomorpholin-4-ylmethyl)-3,5-difluoro-phenyl]-7H-pyrrolo[2,3-d]pyrimidin-2-yl}-amine]
15 | 25 | ≤ 3 | Fc1cc(-n2ccc3cnc(Nc4ccc(N5CCNC(C(F)(F)F)C5)nc4)nc32)cc(F)c1CN1CCOCC1 (racemic) [Example 469, [7-(3,5-Difluoro-4-morpholin-4-ylmethyl-phenyl)-7H-pyrrolo[2,3-d]pyrimidin-2-yl]-[6-(3-trifluoromethyl-piperazin-1-yl)-pyridin-3-yl]-amine]
16 | 34.5 | ≤ 3 | Fc1cc(-n2ccc3cnc(Nc4ccc(CN5CCNC(C(F)(F)F)C5)cc4)nc32)cc(F)c1CN1CCOCC1 (racemic) [Example 476, [7-(3,5-Difluoro-4-morpholin-4-ylmethyl-phenyl)-7H-pyrrolo[2,3-d]pyrimidin-2-yl]-[4-(3-trifluoromethyl-piperazin-1-ylmethyl)-phenyl]-amine]
17 | 38 | ≤ 3 | COC1CCN(Cc2ccc(Nc3ncc4ccn(-c5cc(F)c(CN6CCOCC6)c(F)c5)c4n3)cc2)C1 (racemic) [Example 506, [7-(3,5-Difluoro-4-morpholin-4-ylmethyl-phenyl)-7H-pyrrolo[2,3-d]pyrimidin-2-yl]-[4-(3-methoxy-pyrrolidin-1-ylmethyl)-phenyl]-amine]
18 | 60.5 | 3.6 | Fc1cc(-n2ccc3cnc(Nc4ccc(OC5CCNC5)nc4)nc32)cc(F)c1CN1CCOCC1 (racemic) [Example 519, [7-(3,5-Difluoro-4-morpholin-4-ylmethyl-phenyl)-7H-pyrrolo[2,3-d]pyrimidin-2-yl]-[6-(pyrrolidin-3-yloxy)-pyridin-3-yl]-amine]

Row | SMILES | IC50 [1] [nM] | IC50 (GST-JAK2(808-1132)) [nM]
19 | COC1CCN(Cc2cc(Nc3ncc4ccn(-c5cc(F)c(CN6CCOCC6)c(F)c5)c4n3)ccc2C)C1 (racemic) [Example 417, [7-(3,5-Difluoro-4-morpholin-4-ylmethyl-phenyl)-7H-pyrrolo[2,3-d]pyrimidin-2-l]-[3-(3-methoxy-pyrrolidin-1-ylmethyl)-4-methyl-phenyl]-amine] | 5 | ≤ 3
